Reference: PubChem BioAssay AID2137 (Broad Institute, 2009)
Values joined by “and” are separate entries in the source; they are usually repeats but may differ in a detail not shown here. Equal values may be shown once. Records with an inconclusive call do not appear. Active and inactive are the calls of the source.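 Rule for the calls: active = IC50 at most ten times the top tested dose; inconclusive = flat fit with 30 to 70% activity, or an invalid poor fit; inactive = the rest.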

Target: S. pyogenes M1 GAS streptokinase expression, plasminogen activation OD405
Assay: S. pyogenes plasminogen activation signal decrease – absorbance readout, M1 GAS, streptokinase expression inhibitor project, dose response (AID 2137)

SMILES | IC50
O=C(c1ccc(F)cc1)n1c2ccccc2c2ccccc21 | 6.27 µM
CCCCn1c(=O)c(C(=O)NCc2ccccc2)c(O)c2ccccc21 | > 500 µM (inactive)
Cc1cc(C)c2nc(-c3ccncc3)cc(C(=O)N3CCN(Cc4ccccc4Cl)CC3)c2c1 | 9.54 µM
COc1ccc(-c2nc(-c3cccs3)c(-c3cccs3)[nH]2)cc1OC | 5.93 µM
CC1CCN(C(=O)N2c3ccccc3Sc3ccccc32)CC1 | 15 µM
O=C(CSc1cccs1)N1c2ccccc2Sc2ccccc21 | 33.8 µM
COc1ccc(-c2csc3ncnc(N4CCN(c5ccccc5Cl)CC4)c23)cc1 | 6.67 µM
CCOC(=O)c1c(NC(=O)c2cccs2)sc(CC)c1-c1cccs1 | 21.8 µM
Clc1cccc(Cl)c1CSc1nnc(/C=C/c2ccccc2)o1 | 4.39 µM
O=C(CSc1ccc(Cl)cc1)N1c2ccccc2Sc2ccccc21 | 3.1 µM
COc1ccc(Sc2ccc(NC(=O)c3ccccc3Cl)cc2C#N)cc1 | 2.27 µM
Cc1ccc(C(=O)n2c3ccccc3c3ccccc32)cc1 | 2.89 µM
CN(C)c1ccc(C(=O)n2c3ccccc3c3ccccc32)cc1 | 4.09 µM
CC(=O)N(C)c1ccc(OCC(O)Cn2c3ccc(Cl)cc3c3cc(Cl)ccc32)cc1 (stereo not given) | 4.94 µM
O=C(CSc1nc(-c2ccc(Cl)cc2)[nH]c(=O)n1)Nc1cccc(Cl)c1 | 3.54 µM
FC(F)(F)c1cccc(-c2cc3ccccc3nc2N2CCCC2)c1 | 3.94 µM
CCC1CCCCN1S(=O)(=O)c1ccc(NC(=O)c2nc(S(C)(=O)=O)ncc2Cl)cc1 (stereo not given) | 1.17 µM
O=C(CSc1ccccc1)N1c2ccccc2Sc2ccccc21 | 9.11 µM
C=CCn1c(SCC#N)nc2c(c1=O)C(C)(C)Cc1ccccc1-2 | 10.1 µM
N#Cc1ccc(C(=O)n2c3ccccc3c3ccccc32)cc1 | 57.7 µM
CN1C(=O)/C(=C\c2cccn2-c2ccc3ccccc3c2)C(=O)NC1=S | 5.42 µM
CCN(CC)C(=S)SCC(=O)Nc1nc(-c2ccccc2)c(-c2ccccc2)o1 | 20.5 µM
CC(C)(C)N/N=C1\CC(c2ccccc2)Oc2ccccc21 (stereo not given) | 7.95 µM
O=C(c1ccccc1C(F)(F)F)n1c2ccccc2c2ccccc21 | 6.62 µM
Cc1cc(C(=O)OC(C(=O)Nc2cccc(C(F)(F)F)c2)c2ccccc2)c(C)o1 (stereo not given) | 7.09 µM

SMILES | IC50
FC(F)(F)c1nc(N2CCN(c3ccccc3)CC2)nc2c1CCCCC2 | 1.73 µM
CCCOc1ccc(-c2nc(OC)c3ccccc3n2)cc1 | 4.03 µM
O=C(CSc1ccncc1)N1c2ccccc2Sc2ccccc21 | 83.6 µM
Cc1cc(C)c(NC(=O)c2oc3ccccc3c2COc2ccccc2)c(C)c1 | 98.8 µM
Cc1cc2oc(=O)cc(CN(C)Cc3ccccc3)c2cc1C(C)C | 9.18 µM
O=C(NC(=S)Nc1ccccc1N1CCCC1)c1ccccc1Br | 23.6 µM
COC(=O)c1ccccc1NC(=O)c1nc(S(=O)(=O)Cc2ccccc2)ncc1Cl | 3.37 µM
FC(F)(F)c1cc(-c2ccco2)nc(NCc2ccc(Cl)cc2)n1 | > 500 µM (inactive)
O=C(c1ccc(OC(F)(F)F)cc1)n1c2ccccc2c2ccccc21 | 6.36 µM
CC(C)c1ccc(NC(=O)c2cc(S(=O)(=O)NCC3COc4ccccc4O3)ccc2F)cc1 (stereo not given) | 3.65 µM
COCc1cc(Sc2c(Cl)cccc2Cl)nc(-c2ccccc2)n1 | 7.59 µM
CC1CC(C)CN(c2ncc3c(n2)CC(c2ccccc2Cl)CC3=O)C1 (stereo not given) | 2.26 µM
COc1ccc(SCC(=O)N2c3ccccc3Sc3ccccc32)cc1 | 6.54 µM
Cc1noc(C)c1CSc1nc2sc(C)c(C)c2c(=O)n1C1CCCC1 | 3.13 µM
O=C(Nc1cc(S(=O)(=O)Nc2ccc(Cl)cc2)ccc1N1CCCCC1)c1ccc(F)cc1 | 4 µM
COc1ccc2oc(C(=O)N3CCN(C(c4ccccc4)c4ccccc4)CC3)c(C)c2c1 | 24.9 µM
O=C(c1ccc(Cl)cc1)n1c2ccccc2c2ccccc21 | 18.2 µM
Cc1ccc(SCC(=O)N2c3ccccc3Sc3ccccc32)cc1 | 7.6 µM and 5.6 µM
Cc1ccc(C(=O)N2c3ccccc3Sc3ccccc32)cc1 | 46.5 µM
COc1ccc(Nc2ncnc3scc(-c4ccc(OC)cc4)c23)cc1 | 5.7 µM
COc1cccc(C(=O)n2c3ccccc3c3ccccc32)c1 | 13.7 µM
CC[C@@H](C)[C@H](NC(=O)OC(C)(C)C)c1nnc(S(=O)(=O)Cc2cc(C)ccc2C)o1 | 4.15 µM
Cc1ccc(C(=O)C(c2ccccc2)N2Cc3ccccc3C2=N)cc1 (stereo not given) | 8.38 µM
Cc1ccc(/C=C/c2ccc(=O)n(Cc3ccccc3Cl)n2)cc1 | 14.2 µM
Cn1c(=O)c2c(nc(SCc3ccccc3)n2Cc2ccc(Cl)cc2)n(C)c1=O | 5.9 µM
